What was measured:
human CB2 receptors = target: T1, human CB2 receptors (Homo sapiens, UniProt P34972); assay: human CB2 radioligand binding assay ([3H]CP 55,940 competition); conditions: human CB2 (Ki, nM), HEK293 membranes, 0.5 nM [3H]CP 55,940
T1 construct: expressed in transfected cells; host or cells: HEK293
In short: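 Membranes from HEK293 cells stably expressing human CB2 (5 μg protein/well) competed against 0.5 nM [3H]CP 55,940 with five concentrations of test ligand (0.01 nM to 10 μM), pH 7.4 Tris buffer with BSA, 90 min at 30 °C. Filtration and scintillation counting; nonspecific binding with 10 μM unlabeled CP 55,940.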

Rat CB1 = target: T2, Rat CB1 (Rattus norvegicus, UniProt P20272); assay: rat CB1 cyclase functional assay (HitHunter cAMP); assay type: cell-based; conditions: Rat CB1 cyclase (EC50, nM), HEK cells, forskolin 37 μM
T2 construct: expressed in transfected cells; host or cells: HEK
Experimental: (§1) The cyclase functional assays were performed using the HitHunter™ cAMP assay kit from DiscoveRx (Fremont, Calif.) according to vendor's protocol. Briefly, HEK cells expressing CB2 or CB1 receptors (rat or human) were detached using cell dissociation buffer (Invitrogen, Carlsbad, Calif.), dispersed and placed in suspension at 10,000 cells per well in 96 well plates prior to the assay. Cell suspensions were incubated at 37° C. for 20 min with variable concentrations of test ligands and or 10 μM CP 55,940-positive control in the presence of a fixed concentration of forskolin (18 μM for rat CB2 and 37 μM for rat CB1) in Dulbescco's phosphate-buffered saline (Invitrogen, Carlsbad, Calif.) supplemented with bovine serum albumin (0.01% final concentration). The reactions were terminated by the addition of lysis buffer and the luminescence was detected following the procedure according to the manufacturer's instructions. EC50 values were calculated using sigmoidal dose-response curve fitting from Prism (GraphPad).

rat CB2 [1] = target: T3, rat CB2 (Rattus norvegicus, UniProt Q9QZN9); assay: rat CB2 radioligand binding assay ([3H]CP 55,940 competition); parameters: expressed in transfected cells; host or cells: HEK293; conditions: rat CB2 (Ki, nM), HEK293 membranes, 0.5 nM [3H]CP 55,940
T3 sequence (Q9QZN9 1-360): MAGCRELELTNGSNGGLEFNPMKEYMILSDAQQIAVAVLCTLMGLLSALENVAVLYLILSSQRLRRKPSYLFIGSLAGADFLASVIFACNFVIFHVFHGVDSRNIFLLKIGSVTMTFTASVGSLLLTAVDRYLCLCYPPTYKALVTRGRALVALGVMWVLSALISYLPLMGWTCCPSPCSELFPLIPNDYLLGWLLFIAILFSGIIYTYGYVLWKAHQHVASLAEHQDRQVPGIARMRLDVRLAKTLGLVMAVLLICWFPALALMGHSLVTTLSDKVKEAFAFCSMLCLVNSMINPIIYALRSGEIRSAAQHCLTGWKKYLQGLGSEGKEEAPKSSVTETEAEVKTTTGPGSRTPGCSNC
In short: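 Membranes (20 μg protein/well) from HEK293 cells stably expressing the receptor were incubated 45 min at 30 °C with 0.5 nM [3H]CP 55,940 and five concentrations of test compound (0.01 nM–10 μM) in Tris/EDTA/MgCl2/BSA buffer, pH 7.4. Bound ligand was measured by GF/C filtration and scintillation counting; 10 μM CP 55,940 defined nonspecific binding.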

rat CB2 [2] = target: T3, rat CB2; assay: rat CB2 cyclase functional assay (HitHunter cAMP); assay type: cell-based; parameters: expressed in transfected cells; host or cells: HEK; conditions: rat CB2 cyclase (EC50, nM), HEK cells, forskolin 18 μM
Experimental: as §1

T1 sequence (P34972 whole entry): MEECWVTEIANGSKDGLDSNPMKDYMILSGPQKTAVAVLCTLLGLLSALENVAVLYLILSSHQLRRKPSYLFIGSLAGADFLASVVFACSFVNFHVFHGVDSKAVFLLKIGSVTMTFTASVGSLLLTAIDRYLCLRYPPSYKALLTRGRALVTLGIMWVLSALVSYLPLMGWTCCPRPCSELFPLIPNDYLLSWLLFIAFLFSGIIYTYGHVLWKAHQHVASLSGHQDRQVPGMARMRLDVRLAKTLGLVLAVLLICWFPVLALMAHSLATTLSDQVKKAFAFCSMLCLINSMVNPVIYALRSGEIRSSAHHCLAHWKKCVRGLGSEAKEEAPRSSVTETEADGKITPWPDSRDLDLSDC
T2 sequence (P20272 whole entry): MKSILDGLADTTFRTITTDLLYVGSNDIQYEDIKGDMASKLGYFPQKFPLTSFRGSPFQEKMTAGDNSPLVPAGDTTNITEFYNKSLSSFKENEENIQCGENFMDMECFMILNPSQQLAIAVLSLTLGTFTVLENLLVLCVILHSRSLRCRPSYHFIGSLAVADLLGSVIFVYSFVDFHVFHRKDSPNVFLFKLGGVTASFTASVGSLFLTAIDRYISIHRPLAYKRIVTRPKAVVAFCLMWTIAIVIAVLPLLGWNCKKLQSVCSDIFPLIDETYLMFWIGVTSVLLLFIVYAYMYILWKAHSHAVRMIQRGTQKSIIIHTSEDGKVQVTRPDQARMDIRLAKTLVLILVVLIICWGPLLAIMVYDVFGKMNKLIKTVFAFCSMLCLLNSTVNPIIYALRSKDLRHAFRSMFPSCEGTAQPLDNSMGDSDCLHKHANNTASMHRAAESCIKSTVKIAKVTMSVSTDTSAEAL

**Q.** `Cn1c(C(C)(C)C)c/c(=N\C(=O)c2cc(C(F)(F)F)ccc2OC[C@@H]2CCC(=O)N2)n1C[C@H]1CCCO1` [Example 12, N-{(3E)-5-tert-butyl-1-methyl-2-[(2R)-tetrahydrofuran-2-ylmethyl]-1,2-dihydro-3H-pyrazol-3-ylidene}-2-{[(2S)-5-oxopyrrolidin-2-yl]methoxy}-5-(trifluoromethyl)benzamide] was tested. Which Ki (human CB2 receptors) did it give?
**A.** Its Ki is 99 nM.

**Q.** And the EC50 (Rat CB1)?
**A.** Its EC50 is > 27000 nM.

**Q.** And the Ki (rat CB2 [1])?
**A.** The Ki was 46 nM.

**Q.** And the EC50 (rat CB2 [2])?
**A.** The EC50 was 0.79 nM.

**Q.** Which results are given for `Cn1c(C(C)(C)C)c/c(=N\C(=O)c2cc(C(F)(F)F)ccc2OCCN2CCCC2=O)n1C[C@H]1CCCO1` [Example 15]?
**A.** Ki (human CB2 receptors): 193 nM; EC50 (Rat CB1): > 27000 nM; Ki (rat CB2 [1]): 203 nM; EC50 (rat CB2 [2]): 1.4 nM

**Q.** `Cn1c(C(C)(C)C)c/c(=N\C(=O)c2cc(C(F)(F)F)ccc2OC[C@@H]2COC(C)(C)O2)n1C[C@H]1CCCO1` [Example 16, N-{(3E)-5-tert-butyl-1-methyl-2-[(2R)-tetrahydrofuran-2-ylmethyl]-1,2-dihydro-3H-pyrazol-3-ylidene}-2-{[(4R)-2,2-dimethyl-1,3-dioxolan-4-yl]methoxy}-5-(trifluoromethyl)benzamide] was tested. Which Ki (human CB2 receptors) did it give?
**A.** The Ki was 40 nM.

**Q.** What about the EC50 (Rat CB1) of the same molecule?
**A.** Its EC50 is > 27000 nM.

**Q.** And the Ki (rat CB2 [1])?
**A.** Its Ki is 23 nM.

**Q.** What about the EC50 (rat CB2 [2]) of the same molecule?
**A.** The EC50 was 0.47 nM.

**Q.** `Cn1c(C(C)(C)C)c/c(=N\C(=O)c2cc(C(F)(F)F)ccc2OCC[C@H]2COC(C)(C)O2)n1C[C@H]1CCCO1` [Example 17, N-{(3E)-5-tert-butyl-1-methyl-2-[(2R)-tetrahydrofuran-2-ylmethyl]-1,2-dihydro-3H-pyrazol-3-ylidene}-2-{2-[(4S)-2,2-dimethyl-1,3-dioxolan-4-yl]ethoxy}-5-(trifluoromethyl)benzamide] was tested. Which Ki (human CB2 receptors) did it give?
**A.** The Ki was 25 nM.

**Q.** What about the EC50 (Rat CB1) of the same molecule?
**A.** The EC50 was > 27000 nM.

**Q.** What about the Ki (rat CB2 [1]) of the same molecule?
**A.** Its Ki is 36 nM.

**Q.** What about the EC50 (rat CB2 [2]) of the same molecule?
**A.** The EC50 was 0.7 nM.

**Q.** For `Cn1c(C(C)(C)C)c/c(=N\C(=O)c2cc(C(F)(F)F)ccc2OC[C@H]2COC(C)(C)O2)n1C[C@H]1CCCO1` [Example 18, N-{(3E)-5-tert-butyl-1-methyl-2-[(2R)-tetrahydrofuran-2-ylmethyl]-1,2-dihydro-3H-pyrazol-3-ylidene}-2-{[(4S)-2,2-dimethyl-1,3-dioxolan-4-yl]methoxy}-5-(trifluoromethyl)benzamide], which Ki (human CB2 receptors) is on record?
**A.** Its Ki is 37 nM.

**Q.** What about the EC50 (Rat CB1) of the same molecule?
**A.** Its EC50 is > 27000 nM.

**Q.** And the Ki (rat CB2 [1])?
**A.** The Ki was 22 nM.

**Q.** And the EC50 (rat CB2 [2])?
**A.** Its EC50 is 1.8 nM.

**Q.** Which Ki (human CB2 receptors) does the source give for `Cn1c(C(C)(C)C)c/c(=N\C(=O)c2cc(C(F)(F)F)ccc2NC[C@@H]2CCCO2)n1C[C@H]1CCCO1` [Example 21, N-{(3E)-5-tert-butyl-1-methyl-2-[(2R)-tetrahydrofuran-2-ylmethyl]-1,2-dihydro-3H-pyrazol-3-ylidene}-2-{[(2S)-tetrahydrofuran-2-ylmethyl]amino}-5-(trifluoromethyl)benzamide] here?
**A.** The Ki was 0.9 nM.

**Q.** What about the EC50 (Rat CB1) of the same molecule?
**A.** Its EC50 is 901 nM.

**Q.** What about the Ki (rat CB2 [1]) of the same molecule?
**A.** The Ki was 0.6 nM.

**Q.** What about the EC50 (rat CB2 [2]) of the same molecule?
**A.** The EC50 was 0.19 nM.

**Q.** Which results are given for `Cn1c(C(C)(C)C)c/c(=N\C(=O)c2cc(C(F)(F)F)ccc2NC[C@H]2CCCO2)n1C[C@H]1CCCO1` [Example 23, N-{(3E)-5-tert-butyl-1-methyl-2-[(2R)-tetrahydrofuran-2-ylmethyl]-1,2-dihydro-3H-pyrazol-3-ylidene}-2-{[(2R)-tetrahydrofuran-2-ylmethyl]amino}-5-(trifluoromethyl)benzamide]?
**A.** Ki (human CB2 receptors): 4.7 nM; EC50 (Rat CB1): 3420 nM; Ki (rat CB2 [1]): 2.8 nM; EC50 (rat CB2 [2]): 0.37 nM

**Q.** What does the source list for `Cn1c(C(C)(C)C)c/c(=N\C(=O)c2cc(C(F)(F)F)ccc2OC[C@H]2OCC[C@H]2F)n1C[C@H]1CCCO1` [Example 24]?
**A.** Ki (human CB2 receptors): 16 nM; EC50 (Rat CB1): 9200 nM; Ki (rat CB2 [1]): 20 nM; EC50 (rat CB2 [2]): 0.28 nM

Source: patent US8188135B2, “Compounds as cannabinoid receptor ligands” (priority 2008, dated 2012)
